Activity calls are given as the source filed them.
Columns and labels:
[1] = luciferase reporter signal suppression in cells – H4 neuroglioma cells, luminescence, dose response (AID 1990); type: functional, cell-based
[2] = Luminescence Cell-Based Dose Response HTS to Identify Inhibitors of 5'UTR Stem-Loop Driven Prion Protein mRNA Translation in H4 Neuroglioblastoma Cells. [Related pubchem assays: 1827 (Project Summary), 1813 (Primary HTS)]; type: functional
[3] = HEK-293T cell viability reduction – luminescence, B-cell screen hits, cytotoxicity control for BCR NF-kB inhibitor project, dose response (AID 489021); type: functional, cell-based;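 further: HEK-293T cells carrying an NF-kB luciferase reporter; cells exposed to compound for about 14 hours before viability readout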
[4] = alpha-synuclein stem-loop luciferase translation blockers – H4 neuroglioma cells, luminescence, confirmation (AID 1988); type: functional, cell-based
[5] = biological target: T1, DNA repair protein RAD52 homolog (Homo sapiens, UniProt P43351); type: functional, biochemical
T1 sequence (P43351 whole entry): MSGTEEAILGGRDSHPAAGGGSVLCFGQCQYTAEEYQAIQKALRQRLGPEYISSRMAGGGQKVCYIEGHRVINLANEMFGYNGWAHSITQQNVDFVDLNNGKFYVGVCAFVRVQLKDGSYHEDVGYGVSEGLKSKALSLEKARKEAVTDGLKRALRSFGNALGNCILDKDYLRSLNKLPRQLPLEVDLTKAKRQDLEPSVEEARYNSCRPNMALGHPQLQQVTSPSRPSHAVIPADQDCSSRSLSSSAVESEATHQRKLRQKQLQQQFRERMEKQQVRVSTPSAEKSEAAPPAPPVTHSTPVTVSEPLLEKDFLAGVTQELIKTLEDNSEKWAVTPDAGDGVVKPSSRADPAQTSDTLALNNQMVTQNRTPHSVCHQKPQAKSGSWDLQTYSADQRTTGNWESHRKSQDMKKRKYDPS

Protein RecA = biological target: T2, Protein RecA (Mycobacterium tuberculosis, UniProt P9WHJ3); experiment: Fluorescence Cell-Free Homogeneous Dose Retest to Identify Inhibitors of RecA-Intein Splicing Activity. [Related pubchem assays (depositor defined):AID2097, AID2223, AID489010, AID492950]; type: functional
T2 sequence (P9WHJ3 whole entry): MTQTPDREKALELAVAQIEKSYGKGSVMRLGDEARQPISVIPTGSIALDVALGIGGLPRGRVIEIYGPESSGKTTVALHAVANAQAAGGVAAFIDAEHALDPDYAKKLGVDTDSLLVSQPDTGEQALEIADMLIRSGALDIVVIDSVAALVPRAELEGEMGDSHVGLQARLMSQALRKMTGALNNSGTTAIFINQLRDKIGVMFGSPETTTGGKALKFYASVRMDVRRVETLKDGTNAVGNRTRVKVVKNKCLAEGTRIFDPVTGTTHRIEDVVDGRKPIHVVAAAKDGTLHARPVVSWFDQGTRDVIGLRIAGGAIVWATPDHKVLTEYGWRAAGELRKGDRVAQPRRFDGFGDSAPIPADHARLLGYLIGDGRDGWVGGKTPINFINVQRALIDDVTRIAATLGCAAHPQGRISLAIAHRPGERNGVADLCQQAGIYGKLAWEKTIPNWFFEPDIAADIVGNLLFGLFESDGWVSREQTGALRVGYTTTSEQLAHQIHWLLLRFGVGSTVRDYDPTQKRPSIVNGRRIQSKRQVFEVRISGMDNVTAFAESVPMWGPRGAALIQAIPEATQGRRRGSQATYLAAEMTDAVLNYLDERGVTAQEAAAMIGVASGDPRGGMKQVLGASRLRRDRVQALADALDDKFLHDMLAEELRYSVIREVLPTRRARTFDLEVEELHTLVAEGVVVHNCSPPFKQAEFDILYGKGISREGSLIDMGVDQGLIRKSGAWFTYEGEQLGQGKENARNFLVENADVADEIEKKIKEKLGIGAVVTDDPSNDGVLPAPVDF

[6] = biological target: T3, Replicative DNA helicase DnaB (Mycobacterium tuberculosis, UniProt P9WMR3); experiment: DnaB intein splicing inhibitors, dose response, biochemical, cell-free fluorescence (AID 449749); type: functional
T3 sequence (P9WMR3 whole entry): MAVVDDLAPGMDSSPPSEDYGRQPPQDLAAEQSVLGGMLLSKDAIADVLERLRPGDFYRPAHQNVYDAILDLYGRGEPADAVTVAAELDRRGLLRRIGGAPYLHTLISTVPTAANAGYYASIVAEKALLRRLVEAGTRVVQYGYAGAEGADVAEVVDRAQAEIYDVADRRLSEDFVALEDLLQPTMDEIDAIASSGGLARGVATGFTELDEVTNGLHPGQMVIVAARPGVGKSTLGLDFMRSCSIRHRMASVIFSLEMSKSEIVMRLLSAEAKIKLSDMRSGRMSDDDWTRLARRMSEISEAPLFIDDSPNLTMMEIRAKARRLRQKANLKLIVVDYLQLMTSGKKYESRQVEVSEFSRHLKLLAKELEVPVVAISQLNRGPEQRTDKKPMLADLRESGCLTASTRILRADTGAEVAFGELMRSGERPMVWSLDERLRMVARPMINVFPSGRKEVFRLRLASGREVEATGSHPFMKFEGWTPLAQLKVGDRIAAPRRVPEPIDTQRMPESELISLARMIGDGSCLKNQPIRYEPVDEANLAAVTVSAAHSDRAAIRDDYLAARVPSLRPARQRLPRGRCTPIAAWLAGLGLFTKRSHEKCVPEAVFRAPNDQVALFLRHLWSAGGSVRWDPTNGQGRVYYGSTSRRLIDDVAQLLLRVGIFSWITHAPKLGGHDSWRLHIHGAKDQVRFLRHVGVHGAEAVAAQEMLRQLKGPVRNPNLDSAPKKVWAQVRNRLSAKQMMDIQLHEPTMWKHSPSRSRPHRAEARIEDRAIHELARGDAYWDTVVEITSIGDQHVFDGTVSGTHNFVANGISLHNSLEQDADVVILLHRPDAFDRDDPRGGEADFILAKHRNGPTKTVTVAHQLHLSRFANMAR

[7] = biological target: Voltage-dependent T-type calcium channel subunit alpha-1H (Homo sapiens, UniProt O95180); type: functional;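 further: channel activity triggered by adding a high calcium stimulation buffer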
[8] = microbe, parasite or virus in culture; type: functional; conditions: Mycobacterium tuberculosis
Vero = experiment: cells; type: functional; conditions: Chlorocebus sabaeus
[9] = biological target: T4, Ubiquitin-conjugating enzyme E2 N (Homo sapiens, UniProt P61088); type: functional;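 further: Dose-response confirmation in a TR-FRET assay detecting UBC13-driven polyubiquitin chain formation, inhibition measured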
T4 sequence (P61088 whole entry): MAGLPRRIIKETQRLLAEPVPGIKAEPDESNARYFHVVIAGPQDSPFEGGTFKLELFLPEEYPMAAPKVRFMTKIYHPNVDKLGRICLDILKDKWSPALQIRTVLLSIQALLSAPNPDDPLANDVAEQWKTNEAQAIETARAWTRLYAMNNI

[10] = Trypanosoma cruzi growth suppression in host cells – NIH3T3 host cells, beta-gal luminescence, confirmation (AID 2044); type: functional, cell-based;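 further: intracellular parasites grown in NIH/3T3 mouse fibroblasts as host cells; luminescent beta-galactosidase reporter signal from transgenic T. cruzi replicating inside host cells; inhibitors lower the luminescence signal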
[11] = NIH3T3 cell viability loss – ATP luminescence, mouse fibroblasts, counter-screen, dose response (AID 2010); type: functional, cell-based; conditions: NIH3T3;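 further: cells exposed to compound for about 90 hours before reading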
[12] = biological target: T5, Rac GTPase-activating protein 1 (Homo sapiens, UniProt Q9H0H5); experiment: blockers of MgcRacGAP-driven Rac1 GTP hydrolysis – biochemical, ADP Hunter fluorescence, primary and confirmatory, confirmation (AID 624330); type: functional
T5 sequence (Q9H0H5 whole entry): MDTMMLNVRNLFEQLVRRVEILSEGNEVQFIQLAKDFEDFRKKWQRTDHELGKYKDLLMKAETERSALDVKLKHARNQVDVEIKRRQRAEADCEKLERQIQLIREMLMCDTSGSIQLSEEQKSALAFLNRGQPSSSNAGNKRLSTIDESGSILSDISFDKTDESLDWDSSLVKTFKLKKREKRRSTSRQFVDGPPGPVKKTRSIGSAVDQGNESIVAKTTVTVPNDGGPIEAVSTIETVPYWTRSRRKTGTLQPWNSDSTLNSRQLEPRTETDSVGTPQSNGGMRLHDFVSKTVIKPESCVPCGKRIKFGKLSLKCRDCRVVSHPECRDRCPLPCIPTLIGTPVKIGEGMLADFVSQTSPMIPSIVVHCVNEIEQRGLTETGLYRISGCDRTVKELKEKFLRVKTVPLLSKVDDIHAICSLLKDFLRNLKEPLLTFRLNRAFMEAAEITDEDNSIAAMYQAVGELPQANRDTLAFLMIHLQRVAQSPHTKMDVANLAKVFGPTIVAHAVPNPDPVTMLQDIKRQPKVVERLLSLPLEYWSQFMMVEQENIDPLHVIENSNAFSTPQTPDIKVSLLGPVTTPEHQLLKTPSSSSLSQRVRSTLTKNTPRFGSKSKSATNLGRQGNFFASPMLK

Voltage-dependent T-type calcium channel subunit alpha-1H, sequence (O95180 whole entry): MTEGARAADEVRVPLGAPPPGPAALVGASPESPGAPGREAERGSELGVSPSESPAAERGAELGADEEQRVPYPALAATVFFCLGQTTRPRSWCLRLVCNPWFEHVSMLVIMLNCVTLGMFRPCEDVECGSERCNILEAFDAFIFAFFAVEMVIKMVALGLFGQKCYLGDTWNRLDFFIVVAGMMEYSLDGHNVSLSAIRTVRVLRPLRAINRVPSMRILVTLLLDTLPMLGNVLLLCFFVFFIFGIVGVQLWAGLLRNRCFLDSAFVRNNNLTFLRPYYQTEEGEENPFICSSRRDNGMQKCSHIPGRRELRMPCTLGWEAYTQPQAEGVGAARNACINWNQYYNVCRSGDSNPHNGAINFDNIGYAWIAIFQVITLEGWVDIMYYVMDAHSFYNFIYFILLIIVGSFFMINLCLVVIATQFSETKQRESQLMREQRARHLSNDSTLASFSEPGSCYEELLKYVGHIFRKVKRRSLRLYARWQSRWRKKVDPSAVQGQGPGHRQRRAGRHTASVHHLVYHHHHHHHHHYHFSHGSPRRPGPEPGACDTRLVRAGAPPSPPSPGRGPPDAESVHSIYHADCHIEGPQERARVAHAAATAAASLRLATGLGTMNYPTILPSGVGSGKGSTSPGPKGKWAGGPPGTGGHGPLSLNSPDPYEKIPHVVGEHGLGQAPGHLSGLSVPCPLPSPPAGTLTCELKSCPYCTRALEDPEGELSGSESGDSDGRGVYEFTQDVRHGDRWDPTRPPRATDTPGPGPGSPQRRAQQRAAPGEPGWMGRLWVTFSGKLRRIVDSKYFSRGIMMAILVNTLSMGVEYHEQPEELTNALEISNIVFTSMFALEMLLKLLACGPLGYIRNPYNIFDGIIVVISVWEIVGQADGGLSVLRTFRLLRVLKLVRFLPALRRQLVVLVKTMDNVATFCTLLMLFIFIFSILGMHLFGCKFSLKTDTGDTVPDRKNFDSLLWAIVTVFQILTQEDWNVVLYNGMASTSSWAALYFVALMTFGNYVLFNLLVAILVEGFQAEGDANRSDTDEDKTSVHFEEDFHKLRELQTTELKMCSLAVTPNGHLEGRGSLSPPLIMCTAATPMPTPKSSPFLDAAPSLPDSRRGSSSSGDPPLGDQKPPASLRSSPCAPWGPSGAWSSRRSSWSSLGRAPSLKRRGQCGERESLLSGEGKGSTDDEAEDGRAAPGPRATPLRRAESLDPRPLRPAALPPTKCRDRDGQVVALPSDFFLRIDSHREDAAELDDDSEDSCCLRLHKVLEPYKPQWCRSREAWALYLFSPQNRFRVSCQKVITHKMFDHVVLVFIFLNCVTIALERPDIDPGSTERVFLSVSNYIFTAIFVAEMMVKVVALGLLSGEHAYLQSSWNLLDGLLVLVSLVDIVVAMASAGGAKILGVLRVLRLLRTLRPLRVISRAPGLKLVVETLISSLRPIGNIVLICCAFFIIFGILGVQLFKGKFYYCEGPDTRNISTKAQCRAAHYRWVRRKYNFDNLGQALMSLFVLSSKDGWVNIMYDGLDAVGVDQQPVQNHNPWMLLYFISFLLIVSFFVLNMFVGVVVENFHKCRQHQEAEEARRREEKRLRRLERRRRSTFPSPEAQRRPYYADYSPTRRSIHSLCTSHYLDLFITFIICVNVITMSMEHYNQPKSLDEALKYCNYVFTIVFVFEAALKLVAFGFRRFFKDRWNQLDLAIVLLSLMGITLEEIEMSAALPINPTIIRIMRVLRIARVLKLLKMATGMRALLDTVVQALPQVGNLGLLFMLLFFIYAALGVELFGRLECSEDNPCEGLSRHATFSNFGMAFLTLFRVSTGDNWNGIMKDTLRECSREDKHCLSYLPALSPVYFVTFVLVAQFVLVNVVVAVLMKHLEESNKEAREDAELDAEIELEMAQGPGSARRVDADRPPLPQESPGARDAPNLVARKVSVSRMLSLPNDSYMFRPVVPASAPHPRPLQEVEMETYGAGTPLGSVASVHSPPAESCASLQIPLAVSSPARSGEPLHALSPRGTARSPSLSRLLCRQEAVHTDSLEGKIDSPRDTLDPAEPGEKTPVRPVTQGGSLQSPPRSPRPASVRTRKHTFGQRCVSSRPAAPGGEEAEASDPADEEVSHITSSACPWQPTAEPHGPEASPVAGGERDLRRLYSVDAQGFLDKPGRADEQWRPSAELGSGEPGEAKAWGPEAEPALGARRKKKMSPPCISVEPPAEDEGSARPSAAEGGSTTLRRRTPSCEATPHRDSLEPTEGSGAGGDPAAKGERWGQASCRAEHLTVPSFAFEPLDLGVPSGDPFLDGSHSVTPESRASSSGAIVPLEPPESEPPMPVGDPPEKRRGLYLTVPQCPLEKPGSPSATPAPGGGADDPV

CSC1CCCCC1(O)CSc1nc2c(cc1C#N)CCCC2 (stereo unspecified)
EC50 [1]: 14.1 µM (active) | EC50 [2]: 22.3 µM (active) | IC50 [3]: > 80 µM (inactive) | EC50 [4]: > 120 µM (not active)

CCN(CCN(C)C)C(=O)c1ccc2c(c1NCCO)C(=O)c1ccccc1C2=O
AC50 [5]: 6.06 µM (active) | EC50 (Protein RecA): < 0.018 µM (active) | AC50 [6]: 0.0471 µM (active)

COc1ccc(NC(=O)c2nnn(Cc3cccc(F)c3)c2N)c(OC)c1
IC50 [3]: > 80 µM (inactive)

Cc1ccc(-c2nnn(CC(=O)N3CCCc4ccccc43)n2)cc1
EC50 [7]: 3.43 µM (active)

C=CCOc1ccc(C2C(C#N)=C(N)N(Nc3ccccc3)C3=C2C(=O)CC(C)(C)C3)cc1OC (stereo unspecified)
CC50 [8]: 35.8 µM (active)

CC(C)Cn1c(SCC(=O)c2ccc(Cl)s2)nnc1-c1ccco1
CC50 (Vero): > 25 µM (active) | EC50 [7]: 10.6 µM (active)

CCN(CC)CCNc1ncnc2c1sc1nc(N3CCOCC3)c3c(c12)CCCC3
AC50 [5]: 4.88 µM (active) | IC50 [9]: > 20 µM (inactive)

CNC(=O)c1ccccc1NC(=O)c1cccc(S(=O)(=O)N2CCC(C)CC2)c1
IC50 [9]: > 20 µM (inactive)

CC/C(NCc1ccc2c(c1)OCO2)=C1/C(=O)NC(=O)N(C2CCCCC2)C1=O
EC50 [7]: 5.15 µM (active)

Cc1c(C(=O)NCC2COc3ccccc3O2)oc2ccc(S(=O)(=O)N(C)C3CCCCC3)cc12 (stereo unspecified)
EC50 [10]: 1.89 µM (active) | EC50 [7]: 5.64 µM (active) | EC50 [11]: > 60 µM (not active)

FC(F)(F)c1cc(CO[C@@H]2CCCN[C@@H]2c2ccccc2)cc(C(F)(F)F)c1
CC50 [8]: 24.2 µM (active) | IC50 [9]: > 20 µM (inactive)

CCN(CC)CCOCCOc1ccc(Cl)c2ccccc12
CC50 (Vero): > 25 µM (active)

CN(C)c1ccc(C(c2nnnn2CCOC(=O)Nc2ccc(Cl)cc2)N2CCOCC2)cc1 (stereo unspecified)
EC50 [7]: 9.17 µM (active)

CN1CCN(c2ccc(N)c(N3CCN(C)CC3)c2)CC1
IC50 [12]: 33.3 µM (active) | IC50 [9]: > 20 µM (inactive)

COc1ccccc1OCC(=O)N(Cc1nc(-c2ccccc2)no1)C1CCCCC1
EC50 [7]: 5.55 µM (active)

From ChEMBL document CHEMBL1201862, “PubChem BioAssay data set” (2004)
